From ChEMBL document CHEMBL4837192, “The Bisindole Alkaloids Angustilongines M and A from Alstonia penangiana Induce Mitochondrial Apoptosis and G0/G1 Cell Cycle Arrest in HT-29 Cells through Promotion of Tubulin Polymerization” (J Nat Prod, 2021)
The source made the active and inactive calls. The rule behind the calls is not given here.

Legend:
[1] = system: HT-29; test: Induction of cell cycle arrest in human HT-29 cells assessed as accumulation of cells at S phase at 2.7 uM measured after 24 hrs by propidium iodide staining based flow cytometry analysis (Rvb= 35.52%); assay type: functional
[2] = Selectivity index, ratio of IC50 for human CCD-18Co cells to IC50 for human HT-29 cells assessed as cell growth inhibition measured after 48 hrs by MTT assay
[3] = system: HT-29; test: Induction of cell cycle arrest in human HT-29 cells assessed as accumulation of cells at G1 phase at 2.7 uM measured after 48 hrs by propidium iodide staining based flow cytometry analysis (Rvb= 55.39%); assay type: functional
[4] = system: HT-29; test: Induction of cell cycle arrest in human HT-29 cells assessed as accumulation of cells at S phase at 2.7 uM measured after 48 hrs by propidium iodide staining based flow cytometry analysis (Rvb= 35.52%); assay type: functional
[5] = system: HT-29; test: Cytotoxicity against human HT-29 cells assessed as cell growth inhibition measured after 48 hrs by MTT assay; assay type: functional, cell-based; details: HT-29, 48 h
[6] = system: CCD-18Co; test: Cytotoxicity against human CCD-18Co cells assessed as cell growth inhibition measured after 48 hrs by MTT assay; assay type: cell-based
[7] = system: HT-29; test: Induction of cell cycle arrest in human HT-29 cells assessed as accumulation of cells at G2 phase at 2.7 uM measured after 24 hrs by propidium iodide staining based flow cytometry analysis (Rvb= 9.09%); assay type: functional
[8] = system: HT-29; test: Induction of mitochondrial membrane potential loss in human HT-29 cells assessed as apoptotic cells at 2.7 uM measured after 72 hrs by JC-1 staining based flow cytometry analysis (Rvb= 8.6%); assay type: functional
[9] = system: HT-29; test: Induction of apoptosis in human HT-29 cells assessed as early apoptotic cells at 2.7 uM measured after 48 hrs by FITC-annexin V/propidium iodide- double staining based flow cytometry analysis (Rvb= 12.8%); assay type: functional
[10] = system: HT-29; test: Induction of mitochondrial membrane potential loss in human HT-29 cells assessed as healthy cells at 2.7 uM measured after 24 hrs by JC-1 staining based flow cytometry analysis (Rvb= 91.4%); assay type: functional
[11] = system: HT-29; test: Antiproliferative activity against human HT-29 cells cultured as 3D spheroids assessed as inhibition of spheroid formation measured after 48 hrs by MTT assay; assay type: functional, cell-based; details: HT-29, 48 h
[12] = system: HT-29; test: Induction of mitochondrial membrane potential loss in human HT-29 cells assessed as healthy cells at 2.7 uM measured after 72 hrs by JC-1 staining based flow cytometry analysis (Rvb= 91.4%); assay type: functional
[13] = system: HT-29; test: Induction of cell cycle arrest in human HT-29 cells assessed as accumulation of cells at G2 phase at 2.7 uM measured after 48 hrs by propidium iodide staining based flow cytometry analysis (Rvb= 9.09%); assay type: functional
[14] = system: HT-29; test: Induction of apoptosis in human HT-29 cells assessed as activation of caspase-3 at 2.7 uM measured after 24 hrs by flow cytometry analysis (Rvb= 2.2%); assay type: functional
[15] = system: HT-29; test: Induction of apoptosis in human HT-29 cells assessed as dead cells at 2.7 uM measured after 72 hrs by FITC-annexin V/propidium iodide- double staining based flow cytometry analysis (Rvb= 0.4%); assay type: functional
[16] = system: HT-29; test: Induction of apoptosis in human HT-29 cells assessed as activation of caspase-3 at 2.7 uM measured after 48 hrs by flow cytometry analysis (Rvb= 2.2%); assay type: functional
[17] = system: HT-29; test: Antiproliferative activity in human HT-29 cells cultured as 3D spheroids assessed as gradual disaggregation of peripheral cells at IC50 measured after 48 hrs; assay type: functional, cell-based
[18] = system: HT-29; test: Induction of apoptosis in human HT-29 cells assessed as dead cells at 2.7 uM measured after 24 hrs by FITC-annexin V/propidium iodide- double staining based flow cytometry analysis (Rvb= 0.4%); assay type: functional
[19] = system: HT-29; test: Antiproliferative activity in human HT-29 cells cultured as 3D spheroids assessed as reduction in 3D structure of spheroid morphology at IC50 measured after 48 hrs; assay type: functional, cell-based
[20] = system: HT-29; test: Induction of cell cycle arrest in human HT-29 cells assessed as accumulation of cells at G1 phase at 2.7 uM measured after 24 hrs by propidium iodide staining based flow cytometry analysis (Rvb= 55.39%); assay type: functional
[21] = system: HT-29; test: Induction of mitochondrial membrane potential loss in human HT-29 cells assessed as healthy cells at 2.7 uM measured after 48 hrs by JC-1 staining based flow cytometry analysis (Rvb= 91.4%); assay type: functional
[22] = system: HT-29; test: Anticlonogenic activity against human HT-29 cells assessed as inhibition of colony formation measured after 6 days by methylene blue staining based assay; assay type: functional, cell-based; details: dose 1.35-2.7 µM, time 6.0 day
[23] = system: HT-29; test: Induction of apoptosis in human HT-29 cells assessed as early apoptotic cells at 2.7 uM measured after 24 hrs by FITC-annexin V/propidium iodide- double staining based flow cytometry analysis (Rvb= 12.8%); assay type: functional
[24] = system: HT-29; test: Induction of cell cycle arrest in human HT-29 cells assessed as accumulation of cells at G1 phase at 2.7 uM measured after 72 hrs by propidium iodide staining based flow cytometry analysis (Rvb= 55.39%); assay type: functional
[25] = system: HT-29; test: Induction of apoptosis in human HT-29 cells assessed as late apoptotic cells at 2.7 uM measured after 24 hrs by FITC-annexin V/propidium iodide- double staining based flow cytometry analysis (Rvb= 3.0%); assay type: functional
[26] = system: HT-29; test: Induction of apoptosis in human HT-29 cells assessed as late apoptotic cells at 2.7 uM measured after 72 hrs by FITC-annexin V/propidium iodide- double staining based flow cytometry analysis (Rvb= 3.0%); assay type: functional
[27] = system: HT-29; test: Induction of cell cycle arrest in human HT-29 cells assessed as accumulation of cells at G2 phase at 2.7 uM measured after 72 hrs by propidium iodide staining based flow cytometry analysis (Rvb= 9.09%); assay type: functional
[28] = system: HT-29; test: Induction of apoptosis in human HT-29 cells assessed as dead cells at 2.7 uM measured after 48 hrs by FITC-annexin V/propidium iodide- double staining based flow cytometry analysis (Rvb= 0.4%); assay type: functional
[29] = system: HT-29; test: Induction of apoptosis in human HT-29 cells assessed as early apoptotic cells at 2.7 uM measured after 72 hrs by FITC-annexin V/propidium iodide- double staining based flow cytometry analysis (Rvb= 12.8%); assay type: functional
[30] = system: HT-29; test: Induction of apoptosis in human HT-29 cells assessed as activation of caspase-3 at 2.7 uM measured after 72 hrs by flow cytometry analysis (Rvb= 2.2%); assay type: functional
[31] = system: HT-29; test: Induction of apoptosis in human HT-29 cells assessed as late apoptotic cells at 2.7 uM measured after 48 hrs by FITC-annexin V/propidium iodide- double staining based flow cytometry analysis (Rvb= 3.0%); assay type: functional
[32] = system: HT-29; test: Induction of apoptosis in human HT-29 cells assessed as viable cells at 2.7 uM measured after 72 hrs by FITC-annexin V/propidium iodide- double staining based flow cytometry analysis (Rvb= 83.8%); assay type: functional; details: read-out: Activity
[33] = molecular target: Tubulin (Homo sapiens) (UniProt P68371+Q9H4B7+P0DPH7+P68366+Q13509+Q71U36+P04350+Q3ZCM7+P07437+P68363+Q9BQE3+Q6PEY2+Q13885+Q9BVA1+Q9BUF5); test: Induction of tubulin polymerization in human HT-29 cells assessed as stabilization of microtubules at 10 uM by spectrophotometric analysis; assay type: cell-based
[34] = system: HT-29; test: Induction of apoptosis in human HT-29 cells assessed as viable cells at 2.7 uM measured after 24 hrs by FITC-annexin V/propidium iodide- double staining based flow cytometry analysis (Rvb= 83.8%); assay type: functional; details: read-out: Activity
[35] = system: HT-29; test: Induction of cell cycle arrest in human HT-29 cells assessed as accumulation of cells at S phase at 2.7 uM measured after 72 hrs by propidium iodide staining based flow cytometry analysis (Rvb= 35.52%); assay type: functional
[36] = system: HT-29; test: Induction of mitochondrial membrane potential loss in human HT-29 cells assessed as apoptotic cells at 2.7 uM measured after 24 hrs by JC-1 staining based flow cytometry analysis (Rvb= 8.6%); assay type: functional
[37] = system: HT-29; test: Induction of apoptosis in human HT-29 cells assessed as viable cells at 2.7 uM measured after 48 hrs by FITC-annexin V/propidium iodide- double staining based flow cytometry analysis (Rvb= 83.8%); assay type: functional; details: read-out: Activity
[38] = system: HT-29; test: Induction of mitochondrial membrane potential loss in human HT-29 cells assessed as apoptotic cells at 2.7 uM measured after 48 hrs by JC-1 staining based flow cytometry analysis (Rvb= 8.6%); assay type: functional

Structure (SMILES): C/C=C1/CN2CC[C@]34c5cc([C@@H](C)[C@H]6[C@@H]7C[C@H]8c9c(c%10ccccc%10n9C)C[C@@H]([C@@H]7CO[C@@H]6O)N8C)c(OC)cc5N(C)[C@H]3[C@@H]2C[C@@H]1C4C(=O)OC (stereo partly drawn)
- Activity [1]: 34.12%
- Ratio IC50 [2]: 4.88
- Activity [3]: 67.84%
- Activity [4]: 23.15%
- IC50 [5]: 2.5 µM
- IC50 [6]: 12.2 µM
- Activity [7]: 9.84%
- Activity [8]: 64.2%
- Activity [9]: 28.2%
- Activity [10]: 88.7%
- IC50 [11]: 10 µM
- Activity [12]: 35.8%
- Activity [13]: 9.01%
- Activity [14]: 1.7%
- Activity [15]: 0.2%
- Activity [16]: 8.2%
- Activity [17]: Active
- Activity [18]: 0.2%
- Activity [19]: Active
- Activity [20]: 56.04%
- Activity [21]: 68.8%
- Activity [22]: Dose-Dependent Effect
- Activity [23]: 13.8%
- Activity [24]: 76.79%
- Activity [25]: 9.8%
- Activity [26]: 25.6%
- Activity [27]: 9.44%
- Activity [28]: 0.2%
- Activity [29]: 49.1%
- Activity [30]: 50.2%
- Activity [31]: 9.9%
- viability at 2.7 µM [32]: 25.2%
- Activity [33]: Active
- viability at 2.7 µM [34]: 76.2%
- Activity [35]: 13.77%
- Activity [36]: 11.3%
- viability at 2.7 µM [37]: 61.8%
- Activity [38]: 31.2%
